Results from US11542233B2, “Compounds, compositions and methods of use” (Aquinnah Pharmaceuticals, Inc., priority 2016, dated 2023).

Test system: TDP-43 aggregation in PC12 cells stably expressing GFP-tagged mutant TDP-43 (TDP-43^Q33IK::eGFP)
Assay: In vitro efficacy assay: inhibition of TDP-43 inclusions, concentration-response, fluorescence microscopy
Type: cell-based
Details: 1 hour pre-treatment, 15 μM sodium arsenite for 23 hours, 10-point dose response curve
Protocol: Exemplary compounds of the invention were evaluated for efficacy in inhibiting TDP-43 inclusions using a concentration-response assay. Briefly, PC12 cells stably expressing a GFP-tagged mutant form of TDP-43 (TDP-43^Q33IK::eGFP) were pre-treated for 1 hour with exemplary compounds and stressed with 15 μM sodium arsenite for 23 hours to induce TDP-43 aggregation. The inhibitory effect on TDP-43 aggregation was measured using fluorescence microscopy. The ratio of cells with TDP-43 aggregates was calculated based on the total number of cells with detectable GFP expression. In the table, “A” indicates an IC50 of less than 100 nM, “B” indicates an IC50 range from 100 nM to 500 nM; “C” indicates an IC50 range from 500 nM to 2 μM; and “D” indicates an IC50 greater than 2 μM.

[1] = Rattus norvegicus, PC-12, PC12 cells

| SMILES | IC50 [1] | IC50 (PC12 cells) |
| --- | --- | --- |
| CCN(C(=O)c1nc2ccccc2[nH]1)[C@H]1CCC[C@@H](NCc2oc3ccccc3c2C#N)C1 [Compound 497] | < 100 nM | – |
| CCN(C(=O)c1cc2ccccc2[nH]1)[C@H]1CCC[C@@H](NCc2ccccn2)C1 [Compound 127] | < 100 nM | – |
| CCN(C(=O)c1cc2cc(C#N)ccc2[nH]1)[C@H]1CCC[C@@H](NCc2ccc(F)cc2)C1 [Compound 532, 5-cyano-N-ethyl-N-((1S,3R)-3-((4-fluorobenzyl)amino)cyclohexyl)-1H-indole-2-carboxamide] | < 100 nM | – |
| CCN(C(=O)c1cc2ncccc2[nH]1)[C@H]1CCC[C@@H](NCc2cnoc2)C1 [Compound 438] | > 2000 nM | – |
| CCN(C(=O)c1cc2ccccc2[nH]1)[C@H]1CCC[C@@H](NCc2cccc(O)c2)C1 [Compound 427] | < 100 nM | – |
| CCN(C(=O)c1nc2ccccc2[nH]1)[C@H]1CCC[C@@H](NCc2cccc(F)c2)C1 [Compound 480] | < 100 nM | – |
| CCN(C(=O)c1cc2ncccc2[nH]1)[C@H]1CCC[C@@H](NCc2cc(C)on2)C1 [Compound 445] | 100 to 500 nM | – |
| C#CCOc1cccc(CN[C@@H]2CCC[C@H](N(CC)C(=O)c3nc4c(N=[N+]=[N-])cccc4[nH]3)C2)c1 [Compound 560] | < 100 nM | – |
| CCN(C(=O)c1cc2ccccc2[nH]1)[C@H]1CCC[C@@H](NCc2cnn(C)c2)C1 [Compound 461] | 500 to 2000 nM | – |
| CCN(C(=O)c1cc2cc(C#N)ccc2[nH]1)[C@H]1CCC[C@@H](NCc2oc3ccccc3c2C#N)C1 [Compound 536, 5-cyano-N-((1S,3R)-3-(((3-cyanobenzofuran-2-yl)methyl)amino)cyclohexyl)-N-ethyl-1H-indole-2-carboxamide] | < 100 nM | – |
| CCN(C(=O)c1cc2c([nH]1)CCOC2)[C@H]1CCC[C@@H](NCc2ccccc2)C1 [Compound 503] | 100 to 500 nM | – |
| CCN(C(=O)c1nc2ccccc2[nH]1)[C@H]1CCC[C@@H](NCc2cc3ccccn3c2)C1 [Compound 493] | < 100 nM | – |
| CCN(C(=O)c1cc2ccccc2[nH]1)[C@H]1CCC[C@@H](NCc2ccncn2)C1 [Compound 137] | 100 to 500 nM | – |
| CCN(C(=O)c1nc2ccccc2[nH]1)[C@H]1CCC[C@@H](NCc2cccc(OC)c2)C1 [Compound 477] | < 100 nM | – |
| CCN(C(=O)c1cc2ccccc2[nH]1)[C@H]1CCC[C@@H](NCc2ccc(S(C)(=O)=O)cc2)C1 [Compound 432] | 100 to 500 nM | – |
| O=C(c1cc2ccccc2[nH]1)N(CC(F)(F)F)[C@H]1CCC[C@@H](NCc2cccc(F)c2)C1 [Compound 170, N-((1S,3R)-3-((3-fluorobenzyl)amino)cyclohexyl)-N-(2,2,2-trifluoroethyl)-1H-indole-2-carboxamide] | < 100 nM | – |
| CCN(C(=O)c1nc2cc(F)ccc2[nH]1)[C@@]1(C)CCC[C@@H](NCc2ccccc2)C1 [Compound 556, N-((1S,3R)-3-(benzylamino)-1-methylcyclohexyl)-N-ethyl-5-fluoro-1H-benzo[d]imidazole-2-carboxamide] | > 2000 nM | – |
| CCN(C(=O)c1nc2ccccc2[nH]1)[C@H]1CCC[C@@H](NCc2cc3ncccc3o2)C1 [Compound 491] | < 100 nM | – |
| CCN(C(=O)c1nc2cc(F)ccc2[nH]1)[C@H]1CCC[C@@H](NCc2oc3ccccc3c2C#N)C1 [compound 510] | < 100 nM | – |

| SMILES | IC50 [1] | IC50 (PC12 cells) |
| --- | --- | --- |
| CCN(C(=O)c1nc2cc(F)ccc2[nH]1)[C@H]1CCC[C@@H](NCc2ccc(C#N)cc2)C1 [Compound 527] | < 100 nM | – |
| CCN(C(=O)c1cc2ccccc2[nH]1)[C@H]1CCC[C@@H](NCc2cc(C)on2)C1 [Compound 462] | < 100 nM | – |
| CCN(C(=O)c1cc2ccccc2[nH]1)[C@H]1COC[C@H](NCc2ccccc2)C1 [Compound 301, N-((3R,5R)-5-(benzylamino)tetrahydro-2H-pyran-3-yl)-N-ethyl-1H-indole-2-carboxamide] | > 2000 nM | – |
| CCN(C(=O)c1cc2ccccc2[nH]1)C1CCC[C@H](NCc2ccc(F)cc2)C1 (some centres unmarked) [Compound 110] | 100 to 500 nM | – |
| CCN(C(=O)c1cc2cc(F)ccc2[nH]1)[C@H]1CCC[C@@H](NCc2ccc(F)cc2)C1 [Compound 551] | < 100 nM | – |
| CCN(C(=O)c1cc2ccccc2[nH]1)[C@H]1CCC[C@@H](NCc2conc2C2CC2)C1 [Compound 456] | < 100 nM | – |
| CCN(C(=O)c1nc2cc(S(C)(=O)=O)ccc2[nH]1)[C@H]1CCC[C@@H](NCc2ccccc2)C1 [Compound 540] | < 100 nM | – |
| CCN(C(=O)c1nc2cc(C3CC3)ccc2[nH]1)[C@H]1CCC[C@@H](NCc2ccccc2)C1 [Compound 541] | < 100 nM | – |
| C#CCOc1cccc(CN[C@@H]2CCC[C@H](N(CC)C(=O)c3nc4cc([N+](=O)[O-])ccc4[nH]3)C2)c1 [Compound 563] | < 100 nM | – |
| CCN(C(=O)c1cc2ncccc2[nH]1)[C@H]1CCC[C@@H](NCc2cccc(N=[N+]=[N-])c2)C1 [Compound 406, N-((1S,3R)-3-((3-azidobenzyl)amino)cyclohexyl)-N-ethyl-1H-pyrrolo[3,2-b]pyridine-2-carboxamide] | < 100 nM | – |
| CCN(C(=O)c1cc2cc(F)ccc2[nH]1)[C@H]1CCC[C@@H](NCc2oc3ccccc3c2C#N)C1 [Compound 553] | < 100 nM | – |
| C#CCOc1cccc(CN[C@@H]2CCC[C@H](N(CC)C(=O)c3nc4c([N+](=O)[O-])cccc4[nH]3)C2)c1 [Compound 566] | < 100 nM | – |
| CCN(C(=O)c1cc2ncccc2[nH]1)[C@H]1CCC[C@@H](Nc2ccccc2)C1 [Compound 501] | > 2000 nM | – |
| CCN(C(=O)c1nc2cc(F)ccc2[nH]1)[C@H]1CCC[C@@H](NCc2ccccc2)C1 [Compound 483] | < 100 nM | – |
| CCN(C(=O)c1cc2ncccc2[nH]1)[C@H]1CCC[C@H](NC2(c3ccccc3)CC2)C1 [Compound 420] | 500 to 2000 nM | – |
| CCN(C(=O)c1cc2ncccc2[nH]1)[C@H]1CCC[C@@H](NCc2nnc(C)s2)C1 [Compound 439] | > 2000 nM | – |
| CCN(C(=O)c1cc2c(OC)cccc2[nH]1)[C@H]1CCC[C@@H](NCc2ccccc2)C1 [Compound 129] | < 100 nM | – |
| CCN(C(=O)c1cc2ccccc2[nH]1)[C@@H]1COC[C@H](N[C@@H]2CCc3ccccc32)C1 [Compound 505, N-((3S,5R)-5-(((R)-2,3-dihydro-1H-inden-1-yl)amino)tetrahydro-2H-pyran-3-yl)-N-ethyl-1H-indole-2-carboxamide] | > 2000 nM | – |
| CCN(C(=O)c1nc2ccccc2[nH]1)[C@H]1CCC[C@@H](NCc2ccc3ncoc3c2)C1 [Compound 487, N-((1S,3R)-3-((benzo[d]oxazol-6-ylmethyl)amino)cyclohexyl)-N-ethyl-1H-benzo[d]imidazole-2-carboxamide] | < 100 nM | – |

| SMILES | IC50 [1] | IC50 (PC12 cells) |
| --- | --- | --- |
| CCN(C(=O)c1cc2ccccc2[nH]1)[C@H]1CCC[C@@H](NCc2cncnc2)C1 [Compound 130] | 500 to 2000 nM | – |
| CCN(C(=O)c1cc2ccccc2[nH]1)[C@H]1CCC[C@@H](NCc2ccc3ncoc3c2)C1 [Compound 464, N-((1S,3R)-3-((benzo[d]oxazol-6-ylmethyl)amino)cyclohexyl)-N-ethyl-1H-indole-2-carboxamide] | < 100 nM | – |
| CCN(C(=O)c1cc2ccccc2[nH]1)[C@H]1CCC[C@@H](NCc2ccnc(O)c2)C1 [Compound 452] | > 2000 nM | – |
| CCN(C(=O)c1nc2cc(F)ccc2[nH]1)[C@H]1CCC[C@@H](NCc2cccc(F)c2)C1 [Compound 525] | < 100 nM | – |
| CCN(C(=O)c1cc2ccccc2[nH]1)[C@H]1CCC[C@@H](NC2(c3ccccc3)CC2)C1 [Compound 419] | 100 to 500 nM | – |
| CCN(C(=O)c1nc2c(C#N)cccc2[nH]1)[C@H]1CCC[C@@H](NCc2ccccc2)C1 [Compound 481, N-((1S,3R)-3-(benzylamino)cyclohexyl)-4-cyano-N-ethyl-1H-benzo[d]imidazole-2-carboxamide] | < 100 nM | – |
| CCN(C(=O)c1cc2ccccc2[nH]1)[C@H]1CCC[C@@H](NCc2ccc(N=[N+]=[N-])cc2)C1 [Compound 317] | < 100 nM | – |
| CCN(C(=O)c1cc2c(OC)cccc2[nH]1)[C@H]1CCC[C@@H](NCc2oc3ccccc3c2C#N)C1 [Compound 498] | < 100 nM | – |
| CCN(C(=O)c1nc2cc(F)ccc2[nH]1)[C@H]1CCC[C@@H](NCc2oc3ccccc3c2C)C1 [Compound 524] | < 100 nM | – |
| CCN(C(=O)c1cc2ccccc2[nH]1)[C@H]1CCC[C@@H](NCc2nnc(C)s2)C1 [Compound 454] | < 100 nM | – |
| CCN(C(=O)c1cc2ccccc2[nH]1)[C@H]1CCC[C@@H](NCc2cccc(F)c2)C1 [Compound 122] | – | > 2000 nM |
| O=C(c1cc2ccccc2[nH]1)N(CC(F)(F)F)[C@H]1CCC[C@@H](NCc2cccnc2)C1 [Compound 175] | < 100 nM | – |
| CCN(C(=O)c1cc2ncccc2[nH]1)[C@H]1CCC[C@@H](NCc2cc(C3CC3)on2)C1 [Compound 436] | < 100 nM | – |
| CCN(C(=O)c1cc2ncccc2[nH]1)[C@H]1CCC[C@@H](NCc2ccc(N=[N+]=[N-])cc2)C1 [Compound 407] | < 100 nM | – |
| CCN(C(=O)c1cc2ncncc2[nH]1)[C@H]1CCC[C@@H](NCc2ccccc2)C1 [Compound 486] | 100 to 500 nM | – |
| CCN(C(=O)c1cc2ccccc2[nH]1)[C@H]1CCC[C@@H](N[C@H](c2cncnc2)C(F)(F)F)C1 (single isomer, unassigned) [Compound 412] | 100 to 500 nM | – |
| CCN(C(=O)c1cc2c([nH]1)CCCO2)[C@H]1CCC[C@@H](NCc2ccccc2)C1 [Compound 511, N-((1S,3R)-3-(benzylamino)cyclohexyl)-N-ethyl-1,5,6,7-tetrahydropyrano[3,2-b]pyrrole-2-carboxamide] | 100 to 500 nM | – |
| CCN(C(=O)c1cc2ccccc2[nH]1)[C@H]1CCC[C@@H](N[C@@H](c2ccccc2)C(F)(F)F)C1 [Compound 415] | > 2000 nM | – |
